As a reminder, the MIC is the lowest concentration found to suppress growth. The low end stands for inhibition by little substance, the high end for a need for much substance.

Test [1] concerns P. aeruginosa PAO1. As to the kind of experiment: Minimum Inhibitory Concentration (MIC). In kind it is cell-based, Pseudomonas aeruginosa. As to conditions: alone, MHB-II broth. On the procedure: (§1) Pure stock cultures were maintained at −80° C. in 30% (v/v) frozen glycerol solution. Starter cultures were prepared by streaking frozen cultures onto LB agar (LB broth: tryptone 10 g/L, yeast extract 5 g/L and NaCl 5 g/L, supplemented with 1.5 w/v % agar (Fisher Scientific, Canada)). After overnight incubation at 37° C., a single colony was inoculated into 10 mL of LB broth and the culture was incubated at 37° C. on an orbital shaker at 150 rpm for time lengths specific to each experiment. LB broth was used for bacterial culture in all experiments unless otherwise specified.
(§2) Minimum Inhibitory Concentration (MIC) was determined by preparing two-fold serial dilutions of each cPACs fraction and antibiotic in Mueller Hinton broth adjusted with Ca^2+ and Mg^2+ (MHB-II, Oxoid, Fisher Scientific, Canada). […] Bacterial growth was assessed by (i) monitoring the optical density of the cell suspension in each well at 600 nm (OD600 nm), and (ii) the resazurin microtitre plate assay. In the resazurin microtitre plate assay, each well of a microtitre plate was supplemented with 20 μM resazurin, incubated in dark for 20 min at room temperature, followed by fluorescence measurements at ex/em 570/590 nm using a TECAN Infinite M200 Pro microplate reader (Tecan Group Ltd., Switzerland). […]

In test [2] the test system is E. coli CFT073. As to the kind of experiment: Minimum Inhibitory Concentration (MIC). In kind it is cell-based, Escherichia coli. The following applies: alone, MHB-II broth. On the procedure: as §1, §2

In the case of gentamicin, the MIC in test [1] and in test [2] was 2 µg/mL throughout.

Values taken from US20180360898A1, “USE OF CRANBERRY DERIVED PHENOLIC COMPOUNDS AS ANTIBIOTIC SYNERGIZING AGENT AGAINST PATHOGENIC BACTERIA” (THE ROYAL INSTITUTION FOR THE ADVANCEMENT OF …, priority 2015, published 2018).
